The values below come from PMC9917830, “New Piperazine Derivatives of 6-Acetyl-7-hydroxy-4-methylcoumarin as 5-HT1A Receptor Agents” (International Journal of Molecular Sciences, 2023).

In general, melting point refers to the temperature, or range, at which the solid turns liquid. What is called IC50 is the concentration at which inhibition is half-maximal. The term Emax denotes the greatest response seen or fitted, relative to the assay's reference.

Read-outs that look alike come from different tables or passages of the source.

One series addresses T1, 5-HT2A receptor (Rattus norvegicus, UniProt P14842).
T1 construct: Brains were rapidly removed and placed on ice; from tissue; host or cells: Sprague–Dawley rat frontal cortex membranes
The series can be described thus: Competitive 5-HT2A binding assay with [3H]ketanserin, rat frontal cortex membranes. The settings on record: 1 nM [3H]ketanserin. The protocol:
(§1) Sprague–Dawley rats were sacrificed by isoflurane overdose. Brains were rapidly removed and placed on ice. Hippocampi (for 5-HT1A assays) and frontal cortices (for 5-HT2A assays) were dissected on a Petri dish. The tissue from 10 rats was homogenized in 30 vol. homogenization buffer (50 mM Tris-HCl, […], 1 mM EDTA, 1 mM dithiothreitol) with a hand-held Teflon-glass homogenizer. The homogenate was centrifuged at 48,000× g at 4 °C for 15 min. The pellet was suspended and homogenized in homogenization buffer and incubated for 10 min at 36 °C. The centrifugation and suspension steps were repeated twice. The final pellet was homogenized in 5 vol. 50 mM Tris-HCl, pH = 7.4 buffer and stored at −80 °C for not more than 6 months.
(§2) Non-specific binding was determined with 10 μM serotonin in both assays. The final DMSO concentration in the assay was 5%. After incubation, the reaction mixture was deposited with the FilterMate-96 Harvester (Perkin Elmer, Waltham, MA, USA) onto Unifilter® GF/C plates (Perkin Elmer, Waltham, MA, USA) presoaked in 0.4% PEI for 1h. Each well was washed with 2 mL of 50 mM Tris-HCl (pH 7.4) buffer to separate bound ligands from free ones. Plates were left to dry overnight. Then, 35 µL of Microscint-20 scintillation fluid (Perkin Elmer, Waltham, MA, USA) was added to each filter well and left to equilibrate for 2 h. Filter-bound radioactivity was counted in a MicroBeta^2 LumiJet scintillation counter (Perkin Elmer, Waltham, MA, USA). Binding curves were fitted with one-site non-linear regression. Binding affinity (pKi ± SEM and Ki ± 95% confidence intervals) for each compound was calculated from […] values with the Cheng-Prusoff equation from two separate experiments.

Series [1] deals with T2, 5-HT1A receptor (Rattus norvegicus, UniProt P19327).
T2 construct: Brains were rapidly removed and placed on ice; from tissue; host or cells: Sprague–Dawley rat hippocampus membranes
T2 sequence (P19327 1-422): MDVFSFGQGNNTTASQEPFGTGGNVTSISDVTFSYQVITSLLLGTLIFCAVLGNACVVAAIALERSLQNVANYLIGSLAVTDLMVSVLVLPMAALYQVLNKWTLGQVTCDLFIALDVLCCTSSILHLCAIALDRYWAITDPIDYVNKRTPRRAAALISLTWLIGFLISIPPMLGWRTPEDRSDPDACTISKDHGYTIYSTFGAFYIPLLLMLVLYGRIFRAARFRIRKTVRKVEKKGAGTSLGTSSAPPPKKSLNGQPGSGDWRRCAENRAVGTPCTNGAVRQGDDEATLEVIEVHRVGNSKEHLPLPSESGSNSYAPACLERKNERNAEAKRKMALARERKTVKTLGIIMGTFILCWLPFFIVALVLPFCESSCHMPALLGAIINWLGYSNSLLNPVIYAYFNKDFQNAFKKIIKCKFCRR
The series is described as follows: 5-HT1A receptor activation in the [35S]GTP-γ-S assay (agonist and antagonist mode). Format: biochemical. The settings on record: for IC50: read-out: 5-HT1A Receptor Inhibition IC50 (nM, 95% CI); for agonist or antagonist properties at the 5-HT1A receptor: result in words; for Emax / EC50: agonist mode; for Emax: efficacy ± SEM; for EC50: rat hippocampal membranes. The protocol:
as §1, with “The pellet was suspended and homogenized in homogenization buffer and incubated for 10 min at 36 °C.” left out
Non-specific binding was determined with 100 µM of unlabeled GTPγS. The compounds were tested in both the agonist and antagonist mode. […] The final DMSO concentration in the assay was 5%. The reaction mixture was incubated for 90 min at 30 °C on an orbital shaker set at 250 rpm. The reaction mixture was then deposited under vacuum with the FilterMate Harvester® (Perkin Elmer, Waltham, MA, USA) onto Unifilter® GF/C Plates (Perkin Elmer, Waltham, MA, USA) presoaked with wash buffer (50 mM Tris-HCl, pH = 7.4). The wells were then rapidly washed with 2 mL of wash buffer. The filter plates were dried overnight at room temperature. Once completely dry, 35 µL of MicroScint PS (Perkin Elmer, Waltham, MA, USA) scintillation fluid was added to each well. Radioactivity was counted in a MicroBeta^2 LumiJet scintillation counter (Perkin Elmer, Waltham, MA, USA). […] The curves were fitted with the three-parameter non-linear regression model.
On the technique in general: GTPγS resists hydrolysis and so accumulates on activated G proteins.

For series [2], the target named is T2, 5-HT1A receptor. The series can be described thus: Competitive 5-HT1A binding assay with [3H]8-OH-DPAT, rat hippocampal membranes. As to conditions: 1 nM [3H]8-OH-DPAT. The protocol: as §1, §2
[3] abbreviates: 95% CI in brackets, read-out: 5-HT2A Affinity Ki (nM, 95% CI).
The mark [4] stands for this setting: 95% CI in brackets, read-out: 5-HT1A Affinity Ki (nM, 95% CI).
Setting [5] is: ± SEM, read-out: 5-HT2A Affinity pKi (converted).
The mark [6] stands for this setting: 95% CI in brackets, read-out: 5-HT1A Receptor Stimulation EC50 (nM, 95% CI).
Setting [7] is: ± SEM, two experiments, read-out: 5-HT1A Affinity pKi (nM ± SEM) (converted).

T1 sequence (P14842 whole entry): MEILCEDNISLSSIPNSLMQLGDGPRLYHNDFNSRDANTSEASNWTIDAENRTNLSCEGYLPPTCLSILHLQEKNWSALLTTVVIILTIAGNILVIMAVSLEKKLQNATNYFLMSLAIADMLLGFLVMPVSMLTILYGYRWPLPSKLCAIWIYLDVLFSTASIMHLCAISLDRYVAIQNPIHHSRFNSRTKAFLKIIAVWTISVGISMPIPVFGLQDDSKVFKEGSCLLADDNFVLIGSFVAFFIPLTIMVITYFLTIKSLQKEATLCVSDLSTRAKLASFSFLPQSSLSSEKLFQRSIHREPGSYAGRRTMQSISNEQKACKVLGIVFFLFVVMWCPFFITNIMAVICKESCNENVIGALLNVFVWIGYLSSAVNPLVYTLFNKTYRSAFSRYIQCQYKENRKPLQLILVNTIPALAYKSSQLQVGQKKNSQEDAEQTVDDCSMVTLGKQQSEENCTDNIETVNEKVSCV

Molecule `COc1ccccc1N1CCN(CCCCOc2cc3oc(=O)cc(C)c3cc2C(C)=O)CC1` [Compound 1, 6-Acetyl-7-{4-[4-(2-methoxyphenyl)piperazin-1-yl]butoxy}-4-methylchromen-2-one] yielded a melting point of 126 to 127 °C. On 5-HT2A receptor (setting [3]), the Ki worked out at 1420 nM. In addition, at 5-HT1A receptor [1], the IC50 turned out to be 301 nM and the “agonist or antagonist properties at the 5-HT1A receptor” value (“agonist or antagonist properties” for short) was “antagonistic properties”. Moreover, the Ki on 5-HT1A receptor [2] (setting [4]) stood at 5.75 nM.
Take `COc1cccc(N2CCN(CCCCOc3cc4oc(=O)cc(C)c4cc3C(C)=O)CC2)c1` [Compound 2, 6-Acetyl-7-{4-[4-(3-methoxyphenyl)piperazin-1-yl]butoxy}-4-methylchromen-2-one]: the Ki at 5-HT2A receptor (setting [3]) is 1160 nM; on 5-HT2A receptor (setting [5]), 1170 nM; on 5-HT1A receptor [2] (setting [4]), 12.9 nM. This molecule also registered a maximum response (Emax) on 5-HT1A receptor [1] of 146 ± 1.1%. Moreover, the EC50 on 5-HT1A receptor [1] (setting [6]) worked out at 181 nM. Further, the “agonist or antagonist properties” value on 5-HT1A receptor [1] is recorded as “agonistic activity”.
For the molecule `CC(=O)c1cc2c(C)cc(=O)oc2cc1OCCCCN1CCN(c2ccccc2Br)CC1` [Compound 3, 6-Acetyl-7-{4-[4-(2-bromophenyl)piperazin-1-yl]butoxy}-4-methylchromen-2-one], the melting point was in the range of 121 to 122 °C. In addition, the Ki on 5-HT2A receptor (setting [3]) was 1020 nM. Also, on 5-HT1A receptor [1], the IC50 was 5180 nM and the “agonist or antagonist properties” value is given as “antagonistic properties”. On 5-HT1A receptor [2] (setting [4]), the Ki came to 1.96 nM.
For `CC(=O)c1cc2c(C)cc(=O)oc2cc1OCCCCN1CCN(c2cccc(Br)c2)CC1` [Compound 4, 6-Acetyl-7-{4-[4-(3-bromophenyl)piperazin-1-yl]butoxy}-4-methylchromen-2-one], the melting point lay within 109 to 110 °C. Moreover, at 5-HT2A receptor (setting [3]), the Ki was found to be 1160 nM. Further, on 5-HT1A receptor [1], the Emax stood at 176 ± 1.2% and the “agonist or antagonist properties” value was “agonistic profile”. Besides, the EC50 on 5-HT1A receptor [1] (setting [6]) was determined as 113 nM. In addition, the Ki on 5-HT1A receptor [2] (setting [4]) was found to be 0.78 nM. Also, the Ki on 5-HT1A receptor [2] (setting [7]) was 0.759 nM.
As to `CC(=O)c1cc2c(C)cc(=O)oc2cc1OCCCCN1CCN(c2ccc(Br)cc2)CC1` [Compound 5, 6-Acetyl-7-{4-[4-(4-bromophenyl)piperazin-1-yl]butoxy}-4-methylchromen-2-one], the melting point lay in the range of 145 to 146 °C. Also, the Ki on 5-HT2A receptor (setting [3]) is 1350 nM. Further, at 5-HT1A receptor [1], the IC50 was found to be 63200 nM and the “agonist or antagonist properties” value was “antagonistic properties”. Further, the Ki at 5-HT1A receptor [2] (setting [4]) stood at 1.4 nM.
Consider `CC(=O)c1cc2c(C)cc(=O)oc2cc1OCCCCN1CCN(c2ccccc2F)CC1` [Compound 6, 6-Acetyl-7-{4-[4-(2-fluorophenyl)piperazin-1-yl]butoxy}-4-methylchromen-2-one], for which the melting point fell in the range of 112 to 113 °C. In addition, the Ki at 5-HT2A receptor (setting [3]) came out at 1470 nM. In addition, the Emax on 5-HT1A receptor [1] came to 139 ± 1.1%. Further, on 5-HT1A receptor [1] (setting [6]), the EC50 came out at 101 nM. In addition, on 5-HT1A receptor [1] (read-out: 5-HT1A Receptor Stimulation pEC50 (nM ± SEM) (converted)), the EC50 was 102 nM. The Ki on 5-HT1A receptor [2] (setting [4]) was found to be 1.04 nM. In addition, on 5-HT1A receptor [2] (setting [7]), the Ki was 1.07 nM.
Regarding `CC(=O)c1cc2c(C)cc(=O)oc2cc1OCCCCN1CCN(c2ccccc2Cl)CC1` [Compound 7, 6-Acetyl-7-{4-[4-(2-chlorophenyl)piperazin-1-yl]butoxy}-4-methylchromen-2-one], the melting point was in the range of 132 to 133 °C. Further, the Ki at 5-HT2A receptor (setting [3]) stood at 2080 nM. In addition, at 5-HT1A receptor [1], the Emax came to 130 ± 1.4% and the “agonist or antagonist properties” value is given as “strongest agonist”. For the same molecule, the EC50 on 5-HT1A receptor [1] (setting [6]) came out at 49 nM. Besides, the Ki at 5-HT1A receptor [2] (setting [4]) turned out to be 0.57 nM. Besides, at 5-HT1A receptor [2] (setting [7]), the Ki was 0.55 nM.
The molecule `CC(=O)c1cc2c(C)cc(=O)oc2cc1OCCCCN1CCN(c2ccccc2C#N)CC1` [Compound 8, 6-Acetyl-7-{4-[4-(2-cyanophenyl)piperazin-1-yl]butoxy}-4-methylchromen-2-one] gave a melting point of 117 to 118 °C. Also, on 5-HT2A receptor (setting [3]), the Ki worked out at 705 nM. This molecule returned a maximal effect (Emax) on 5-HT1A receptor [1] of 124 ± 1.1%. Further, on 5-HT1A receptor [1] (setting [6]), the EC50 was determined as 59 nM. Also, at 5-HT1A receptor [2] (setting [4]), the Ki turned out to be 9.44 nM.
As for `CC(=O)c1cc2c(C)cc(=O)oc2cc1OCCCCN1CCN(c2cccc(Cl)c2Cl)CC1` [Compound 9, 6-Acetyl-7-{4-[4-(2,3-dichlorophenyl)piperazin-1-yl]butoxy}-4-methylchromen-2-one], the melting point lay in the range of 111 to 112 °C. The Ki at 5-HT2A receptor (setting [3]) was 1290 nM. For the same molecule, on 5-HT2A receptor (setting [5]), the Ki is 1230 nM. The molecule also showed a maximal response (Emax) at 5-HT1A receptor [1] of 133 ± 1.3%. Moreover, the EC50 on 5-HT1A receptor [1] (setting [6]) was determined as 149 nM. The Ki at 5-HT1A receptor [2] (setting [4]) was determined as 6.3 nM.
`CC(=O)c1cc2c(C)cc(=O)oc2cc1OCCCCN1CCN(c2cc(C)cc(C)c2)CC1` [Compound 10, 6-Acetyl-7-{4-[4-(3,5-dimethylphenyl)piperazin-1-yl]butoxy}-4-methylchromen-2-one] had a melting point of 101 to 102 °C. The Ki at 5-HT2A receptor (setting [5]) is 513 nM. Moreover, the maximal effect (Emax) at 5-HT1A receptor [1] stood at 139 ± 1.4%. Besides, the EC50 at 5-HT1A receptor [1] (setting [6]) is 475 nM. For the same molecule, the Ki at 5-HT1A receptor [2] (setting [4]) is 22.4 nM.
In turn, `CC(=O)c1cc2c(C)cc(=O)oc2cc1OCCCCN1CCN(c2cc(C)ccc2C)CC1` [Compound 11, 6-Acetyl-7-{4-[4-(2,5-dimethylphenyl)piperazin-1-yl]butoxy}-4-methylchromen-2-one] gave a melting point of 130 to 131 °C. Besides, the Ki on 5-HT2A receptor (setting [3]) stood at 3710 nM. For the same molecule, the Ki at 5-HT2A receptor (setting [5]) is 3980 nM. The half-maximal inhibitory concentration (IC50) at 5-HT1A receptor [1] was found to be 21900 nM. Moreover, the Ki at 5-HT1A receptor [2] (setting [4]) came out at 174 nM.
With `CC(=O)c1cc2c(C)cc(=O)oc2cc1OCCCCN1CCN(c2ccc([N+](=O)[O-])cc2)CC1` [Compound 12, 6-Acetyl-7-{4-[4-(4-nitrophenyl)piperazin-1-yl]butoxy}-4-methylchromen-2-one], the melting point lay within 138 to 139 °C. Also, the Ki on 5-HT2A receptor (setting [3]) worked out at 1500 nM. For the same molecule, the Ki on 5-HT2A receptor (setting [5]) is 1550 nM. Further, the IC50 at 5-HT1A receptor [1] is 53400 nM. Further, the Ki at 5-HT1A receptor [2] (setting [4]) was 1800 nM. In addition, the Ki on 5-HT1A receptor [2] (setting [7]) was 1780 nM.
`CC(=O)c1cc2c(C)cc(=O)oc2cc1OCCCCN1CCOCC1` [Compound 13, 6-Acetyl-7-[4-(morpholin-4-yl)butoxy]-4-methylchromen-2-one] yielded a melting point of 115 to 116 °C. Further, the Ki at 5-HT2A receptor (setting [3]) stood at 6390 nM. Further, on 5-HT1A receptor [1], the half-inhibitory concentration (IC50) was 93400 nM. At 5-HT1A receptor [2] (setting [4]), the Ki was found to be 9620 nM.
Taken in the same sequence, the figures for `CC(=O)c1cc2c(C)cc(=O)oc2cc1OCCCCN1CCN(c2ccncc2)CC1` [Compound 14] were 107 to 108 °C, 3360 nM, 25000 nM and 1660 nM.
